The text below walks through data of PubChem BioAssay (NCI).

Where “and” joins values, the source holds several entries; their conditions need not be identical. Identical values can stand only once.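 Protocol summary: plate cells (96-well), add compound at 5 concentrations, incubate 48 h, interpolate endpoints linearly. GI50: concentration for 50% inhibition of growth. Definition used: TGI = concentration required for complete inhibition of growth.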

Holding throughout (experiment): DTP human tumour cell line panel, 48 h
Assay [1] deals with CCRF-CEM leukemia.
Assay [2] concerns MALME-3M melanoma.
Assay [3] concerns OVCAR-8 ovarian.
Assay [4] deals with MCF7 breast.
Assay [5] has as its system UACC-62 melanoma.
Assay [6] relates to SN12C renal.
Assay [7] deals with DU-145 prostate.
In assay [8] the test system is HCT-116 colon.
Assay [9] has as its system COLO 205 colon.
Assay [10] has as its system SNB-75 CNS.

Regarding `C=C(C)[C@@H]1CC[C@]2(C(=O)N3CCN(C)CC3)CC[C@]3(C)[C@H](CC[C@@H]4[C@@]5(C)C/C(=C/c6ccncc6)[C@H](O)C(C)(C)[C@@H]5CC[C@]43C)[C@@H]12`, the GI50 – broadly, the concentration that inhibits growth by half – in [1] is 3.3 µM; in assay [2], 2.08 µM; in assay [3] it was 7.68 µM; in assay [4] it was 3.29 µM; in [5], 10.2 µM; in assay [6] it was 6.22 µM. Moreover, the GI50 in [7] is 9.53 µM; in [8] it was 1.6 µM; in [9] it was 3.16 µM; in assay [10], 51.4 µM. Besides, the TGI (as a rule, the concentration giving total growth inhibition) turned out to be 24.5 µM in assay [1]; 6.07 µM in assay [2]; 30.7 µM in assay [3]; 13.8 µM in [4]; 27.9 µM in [5]; 22.3 µM in assay [6]. Moreover, the TGI in assay [7] was 24 µM; in assay [8], 4.46 µM; in assay [9], 23 µM; in [10] it was above 100 µM.
Regarding `COc1ccc(-c2cc(=O)c3c(OC)c(O)c(OC)cc3o2)cc1`, the TGI in assay [1], in [2], in [3], in assay [4], in assay [5] and in [6] was above 100 µM each time. Besides, the TGI in [7], in assay [8], in assay [9] and in assay [10] was above 100 µM throughout.
`CS(=O)(=O)OCCCCOS(C)(=O)=O`: the GI50 in [1] is 214 µM; in [2], above 1000 µM; in assay [3], above 873 µM; in [4], 534 µM; in [5] it was 472 µM; in assay [6] it was 623 µM. The GI50 in [7] is 774 µM; in assay [8], 689 µM; in assay [9] it was above 1000 µM; in [10], 431 µM. Also, the TGI in assay [1] was 250 µM and > 877 µM; in assay [2], 250 µM and > 1000 µM; in assay [3], 250 µM and > 1000 µM; in assay [4] it was 250 µM and > 1000 µM; in assay [5] it was 250 µM and > 1000 µM; in assay [6] it was 250 µM and > 1000 µM. In addition, the TGI in [7] is 250 µM and > 1000 µM; in [8], 250 µM and > 1000 µM; in assay [9], 250 µM and > 1000 µM; in assay [10], 221 µM and > 1000 µM.
`O=S1(=O)OCc2ccccc21`: the TGI in [1], in assay [2], in assay [3], in assay [4], in [5] and in [6] was above 100 µM in each case. Further, the TGI in assay [7], in assay [8], in [9] and in [10] was above 100 µM each time.
For the compound `C/C(=N\NC(=O)c1cccc(S(=O)(=O)N2CCN(C)CC2)c1)c1cc(Cl)ccc1O`, the GI50 was 0.422 µM in assay [1]; 2.39 µM in assay [2]; 0.494 µM in assay [3]; 0.423 µM in assay [4]; 0.873 µM in assay [5]; 1.19 µM in assay [6]. The GI50 was 1.15 µM in assay [7], 0.48 µM in assay [8], 0.387 µM in assay [9] and 0.648 µM in assay [10]. For the same compound, the TGI in assay [1] is above 100 µM; in assay [2] it was 36.6 µM; in [3], above 100 µM; in assay [4], above 100 µM; in [5] it was 6.4 µM; in assay [6] it was above 100 µM. In addition, the total growth inhibition concentration (TGI) in assay [7] was above 100 µM; in assay [8], above 76.2 µM; in assay [9], 15.3 µM; in assay [10], 32.3 µM.
Turning to `OCCNC(=S)Nc1ccc(-c2nc(N3C[C@H]4CC[C@@H](C3)O4)c3cccn3n2)cc1`, the GI50 in [1] was 0.153 µM; in assay [2] it was below 0.01 µM; in [3] it was 0.173 µM; in [4] it was 0.0231 µM; in assay [5] it was 0.018 µM; in assay [6], 0.0617 µM. For the same compound, the GI50 in [7] is 0.0987 µM; in [8], 0.357 µM; in [9] it was 0.0365 µM; in [10], below 0.0124 µM. The TGI in assay [1] was above 40.6 µM; in assay [2] it was 0.055 µM; in assay [3] it was 3.16 µM; in [4], 11.4 µM; in assay [5], 0.194 µM; in [6] it was 16.9 µM. In addition, the TGI in [7] was 24.2 µM; in assay [8], 21.7 µM; in assay [9], 1.69 µM; in assay [10], 0.264 µM.
With `COc1ccc(/C=C(/C(=O)N2CCN(c3ccc(C)cc3)CC2)c2cc(OC)c(OC)c(OC)c2)cc1N`, the GI50 in assay [1] was 0.394 µM; in assay [2], 0.503 µM; in [3], 0.417 µM; in [4], 0.228 µM; in [5] it was 0.362 µM; in assay [6], 0.483 µM. Moreover, the GI50 was 0.307 µM in [7], 0.254 µM in assay [8], 0.339 µM in assay [9] and 0.509 µM in assay [10]. Moreover, the total growth inhibition concentration (TGI) in assay [1], in assay [2], in [3], in [4], in assay [5] and in assay [6] was above 100 µM each time. Moreover, the TGI was above 76.3 µM in assay [7], above 32.9 µM in assay [8], 1.47 µM in [9] and above 100 µM in assay [10].
Take `O=C1c2cccc3c([N+](=O)[O-])ccc(c23)C(=O)N1CCCCl`: the GI50 in assay [1] is 0.489 µM; in [2], 9.77 µM; in assay [3] it was 3.86 µM; in [4] it was 3.03 µM; in assay [5], 4.48 µM; in assay [6], 5 µM. Further, the GI50 in [7] was 4.56 µM; in assay [8], 1.71 µM; in assay [9] it was above 10 µM; in assay [10], 2.86 µM. Besides, the TGI is 3.28 µM in assay [1]; above 10 µM in assay [2]; above 10 µM in assay [3]; above 10 µM in assay [4]; above 10 µM in [5]; above 10 µM in assay [6]. The TGI in assay [7] is above 10 µM; in [8], 3.16 µM; in assay [9] it was above 10 µM; in assay [10], above 10 µM.
